Source: patent publication US20240245670A1, “DOSING REGIMEN AND PHARMACEUTICAL COMBINATION COMPRISING 3-(1-OXOISOINDOLIN-2-YL)PIPERIDINE-2,6-DIONE DERIVATIVES” (Novartis AG, priority 2018, published 2024)

Experiments:
anti-KLH IG = assay: Serum anti-KLH IG levels in immunized cynomolgus monkeys; type: in vivo, cynomolgus monkey; conditions: daily oral 0.1 and 3 mg/kg
Experimental: (§1) The PK/PD relationship of I-57 was further examined in cynomolgus monkeys after repeated daily oral doses of 0.1 and 3 mg/kg. In this study, a cohort of animals were initially immunized with an antigen-adjuvant mixture (KLH/Squalene). The experiment was designed to assess the effect of I-57 exposure, and the resulting IKZF2 degradation, on immune response during immunization to test the hypothesis that IKZF2 degradation would result in increased proliferation of stimulated T-cells. In the experiment, daily I-57 oral treatment was initiated 5 days after immunization. An immunization booster dose was administered on day 15. I-57 plasma concentration and IKZF2 expression (as determined by flow cytometry) in FOXP3+ T cells from PBMCs were determined (FIG. 9A and FIG. 9B).
(§2) In order to measure the impact of I-57 treatment on the immune response following immunization, serum anti-KLH IG levels were measured longitudinally, and levels of T cell activation were measured in PBMCs by flow cytometry. […] In contrast, the proportion of proliferative peripheral T cells (denoted by Ki67 staining) was increased in the highest dose group (3 mg/kg) in the recall response phase, compared to immunization alone.

[1] = PK in repeated oral dose study, MDA-MB231 xenograft human PBMC adoptive transfer mouse model (Table 14); type: in vivo; conditions: for AUCinf (unbound) / Cmax (unbound): mouse, unbound (73% PPB in mouse)
Experimental: FIG. 6 is a pictorial representation of the multi-dose PK/PD study design in the human PBMC adoptive transfer mouse model harboring MDA-MB231 xenografts. Fourteen consecutive daily doses of Compound I-57 was administered at 0.3 mg/kg, 1 mg/kg, 3 mg/kg or 30 mg/kg.
The PK/PD relationship of I-57 was examined in the hPBMC AdT model system. Human PBMCs were adoptively transferred into female NSG mice harboring established MDA-MB231 xenografts (FIG. 6). This model was selected based on the observation that IKZF2 positive Tregs (CD4+FOXP3+) were readily identifiable in peripheral blood and infiltrated in the tumor xenografts.
Mice were administered I-57 daily for 14 consecutive days at the doses shown. Longitudinal I-57 plasma concentrations were assessed (Table 14).
Based on the data from this hPBMC AdT mouse model, unbound I-57 (73% percent plasma binding in the mouse) exposures (AUCinf) of 7, 30, 157 and 3474 ng*h/mL are required to achieve the reduction of IKZF2 positivity (via flow cytometry) in tumor Tregs by 31, 43, 56, and 75%, respectively. The relationship between the magnitude and duration of I-57-mediated IKZF2 degradation and subsequent modulation of therapeutically relevant downstream biology is not yet well understood.

cynomolgus monkeys = assay: 4-week GLP toxicology study in cynomolgus monkeys; type: in vivo
Experimental: The starting dose of I-57 selected for this study is supported by 4-week GLP toxicology studies performed in cynomolgus monkeys. […] GLP toxicity studies identified 30 mg/kg as the HNSTD in monkey and supported a starting dose up to 100 mg QD in human (BSA scaled HED and using a safety factor of 6). The selected dose of 20 mg is anticipated to result in a significant but sub-maximal IKZF2 degradation in human PBMCs and TILs (50-90%), based on PK/PD modeling of I-57 exposure and IKZF2 degradation in cynomolgus PBMCs. More IKZF2 degradation may be required to change downstream biology. Therefore, 20 mg is considered safe. Escalation from this starting dose will facilitate the determination of the minimal required dose which provides optimal IKZF2 degradation to impact downstream biological activity.

peripheral T cells = assay: Proliferation of peripheral T cells (Ki67) in KLH/Squalene immunized cynomolgus monkeys (FIG. 9B); type: in vivo, cynomolgus monkey; conditions: 3 mg/kg group
Experimental: FIG. 9B. is a graph showing proliferation of peripheral T cells (Mean+/−SEM, % of predose) upon treatment with 0.1 and 3 mg/kg of Compound I-57 in cynomolgus monkeys.
as §1, §2

human recombinant CYPs = assay: Assessment of enzymes involved in oxidative metabolism using human recombinant CYPs in vitro; type: in vitro ADME; conditions: preliminary assessment
Experimental: In vivo in the dog, very minor amounts of the N-dealkylation product and products derived from hydrolysis of the glutarimide moiety were detected in plasma. While the contribution of CYP-mediated oxidative metabolism to systemic clearance is unknown, a preliminary assessment of the enzymes involved was conducted using human recombinant CYPs in vitro.

[2] = PK after repeated daily oral dosing in immunized cynomolgus monkeys (Table 15); type: in vivo, cynomolgus monkey; conditions: for AUC0-24 (unbound) / AUC0-24/D (unbound) / Cmax (unbound) / Cmax/D (unbound): cynomolgus monkey
Experimental: as §1
Exposure levels for 3 mg/kg in cynomolgus monkeys are anticipated to correspond to ˜100 mg QD in humans.

[3] = In vivo non-clinical PK / high dose PK and toxicology exposure; conditions: rat; between 3 mg/kg and 300 mg/kg
Experimental: (§3) The in vivo non-clinical PK profile of I-57 was investigated in mouse, rat, dog and cynomolgus monkey using I-57 free base. […] After p.o. administration, the absorption of I-57 was rapid with peak blood concentration (Tmax) occurring between 1 and 4 hours. […] In high dose PK and toxicology studies with I-57 the exposures in mouse, rat and monkey increased with dose.

[4] = as above; parameters: species or system cynomolgus monkey; conditions: monkey
Experimental: as §3

[5] = In vitro metabolism in liver microsomes and hepatocytes across species; type: in vitro ADME
[6] = p.o. 0.3 mg/kg daily, post 1st dose
[7] = p.o. 0.3 mg/kg daily, post 13th dose
[8] = p.o. 1 mg/kg daily, post 1st dose
[9] = p.o. 1 mg/kg daily, post 13th dose
[10] = p.o. 3 mg/kg daily, post 1st dose
[11] = p.o. 3 mg/kg daily, post 13th dose
[12] = p.o. 30 mg/kg daily, post 1st dose
[13] = p.o. 30 mg/kg daily, post 13th dose
[14] = Day 5, Group 2 (only I-57), 0.1 mg/kg/day oral
[15] = Day 5, Group 4 (I-57 + KLH + adjuvant), 0.1 mg/kg/day oral
[16] = Day 5, Group 5 (I-57 + KLH + adjuvant), 3 mg/kg/day oral
[17] = Day 29, Group 2 (only I-57), 0.1 mg/kg/day oral
[18] = Day 29, Group 4 (I-57 + KLH + adjuvant), 0.1 mg/kg/day oral
[19] = Day 29, Group 5 (I-57 + KLH + adjuvant), 3 mg/kg/day oral

O=C1CCC(N2Cc3cc(C4CCN(Cc5ccccc5)CC4)ccc3C2=O)C(=O)N1 (centres unmarked) [Compound I-57, 3-(5-(1-benzylpiperidin-4-yl)-1-oxoisoindolin-2-yl)piperidine-2,6-dione]
anti-IgG titers elicited by the immunization (anti-KLH IG): not further enhanced
increase in AUC and Cmax with dose ([1]; between 3 and 30 mg/kg, daily oral): over-dose proportional increase
increase in overall AUC and Cmax with dose ([1]; from 0.3 to 3 mg/kg, daily oral): dose proportional increase
AUCinf (unbound) [1, 6]: 7.1 ng·h/mL
Cmax (unbound) [1, 6]: 2.9 ng/mL
AUCinf (unbound) [1, 7]: 7.5 ng·h/mL
Cmax (unbound) [1, 7]: 1.1 ng/mL
AUCinf (unbound) [1, 8]: 30 ng·h/mL
Cmax (unbound) [1, 8]: 8.8 ng/mL
AUCinf (unbound) [1, 9]: 20 ng·h/mL
Cmax (unbound) [1, 9]: 4.6 ng/mL
AUCinf (unbound) [1, 10]: 157 ng·h/mL
Cmax (unbound) [1, 10]: 53 ng/mL
AUCinf (unbound) [1, 11]: 92 ng·h/mL
Cmax (unbound) [1, 11]: 27 ng/mL
AUCinf (unbound) [1, 12]: 3470 ng·h/mL
Cmax (unbound) [1, 12]: 1250 ng/mL
AUCinf (unbound) [1, 13]: 4270 ng·h/mL
Cmax (unbound) [1, 13]: 1300 ng/mL
unbound exposure (AUCinf) ([1]; required for reduction of IKZF2 positivity in tumor Tregs by 31%): 7 ng·h/mL
unbound exposure (AUCinf) ([1]; required for reduction of IKZF2 positivity in tumor Tregs by 43%): 30 ng·h/mL
unbound exposure (AUCinf) ([1]; required for reduction of IKZF2 positivity in tumor Tregs by 56%): 157 ng·h/mL
unbound exposure (AUCinf) ([1]; required for reduction of IKZF2 positivity in tumor Tregs by 75%): 3474 ng·h/mL
supported starting dose in human (BSA scaled HED, safety factor of 6) (cynomolgus monkeys; derived from monkey HNSTD): up to 100 mg QD
HNSTD (cynomolgus monkeys; monkey, 4-week GLP toxicity studies): 30 mg/kg
levels of Ki67 until the end of the study (peripheral T cells): remained elevated
enzyme primarily mediating oxidative metabolism (human recombinant CYPs): CYP3A4
AUC0-24 (unbound) [2, 14]: 56.8 ng·h/mL
AUC0-24/D (unbound) [2, 14]: 567 (ng · h/mL)/(mg/kg)
Cmax (unbound) [2, 14]: 7.10 ng/mL
Cmax/D (unbound) [2, 14]: 71.0 (ng/mL)/(mg/kg)
AUC0-24 (unbound) [2, 15]: 63.5 ng·h/mL
AUC0-24/D (unbound) [2, 15]: 634 (ng · h/mL)/(mg/kg)
Cmax (unbound) [2, 15]: 11.0 ng/mL
Cmax/D (unbound) [2, 15]: 110 (ng/mL)/(mg/kg)
AUC0-24 (unbound) [2, 16]: 2840 ng·h/mL
AUC0-24/D (unbound) [2, 16]: 946 (ng · h/mL)/(mg/kg)
Cmax (unbound) [2, 16]: 523 ng/mL
Cmax/D (unbound) [2, 16]: 175 (ng/mL)/(mg/kg)
AUC0-24 (unbound) [2, 17]: 78.1 ng·h/mL
AUC0-24/D (unbound) [2, 17]: 782 (ng · h/mL)/(mg/kg)
Cmax (unbound) [2, 17]: 13.1 ng/mL
Cmax/D (unbound) [2, 17]: 131 (ng/mL)/(mg/kg)
AUC0-24 (unbound) [2, 18]: 96.4 ng·h/mL
AUC0-24/D (unbound) [2, 18]: 965 (ng · h/mL)/(mg/kg)
Cmax (unbound) [2, 18]: 18.0 ng/mL
Cmax/D (unbound) [2, 18]: 180 (ng/mL)/(mg/kg)
AUC0-24 (unbound) [2, 19]: 3460 ng·h/mL
AUC0-24/D (unbound) [2, 19]: 1150 (ng · h/mL)/(mg/kg)
Cmax (unbound) [2, 19]: 504 ng/mL
Cmax/D (unbound) [2, 19]: 169 (ng/mL)/(mg/kg)
human dose anticipated to correspond to exposure levels ([2]; exposure levels for 3 mg/kg in cynomolgus monkeys): ~100 mg QD
increase in AUC with dose [3]: roughly dose proportional
increase in AUC with dose ([4]; above 100 mg/kg): less than dose proportional
increase in AUC with dose ([4]; between 10 mg/kg and 100 mg/kg): slightly over-proportional
metabolic stability [5]: very stable
